Experimental findings from ChEMBL document CHEMBL1126306, “Inactivation of calpain by peptidyl fluoromethyl ketones” (J Med Chem, 1992) are described below.

The nature of the data set: The rate of inactivation expressed as second-order rate constant is independent of concentration. To be noted: for kinact/KI: read-out: k2.

Where a SMILES comes first, the peptide text is derived from it.

`C[C@H](NC(=O)[C@H](Cc1ccc(O)cc1)NC(=O)OCc1ccccc1)C(=O)CF`: the kinact/KI amounted to 7.4e+06 M⁻¹ s⁻¹.
Consider `CC(C)C[C@H](NC(=O)OCc1ccccc1)C(=O)N[C@@H](Cc1ccc(O)cc1)C(=O)CF` (HELM PEPTIDE1{[O=C(OCc1ccccc1)[*:2]].L.Y.[FC[*:1]]}$$$$V2.0), for which the k2 is 12000 M⁻¹ s⁻¹ and the kinact/KI is 17000 M⁻¹ s⁻¹.
